Tested on: K-562 leukemia growth, % test/control
Experiment: Anticancer human tumor K-562 cell line growth inhibition;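 further: spheroids exposed to compounds for 7 days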;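 on viability, T/C: 100% = DMSO vehicle wells and lower values mean fewer viable cells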
Conditions: spheroids with HUVEC and MSC; for IC50: curve of first compound; for viability, T/C: stronger effect = lower value
How it was run: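 Multicellular complex spheroids of tumor cells with human endothelial cells (HUVEC) and mesenchymal stem cells; the LSD1 inhibitor iadademstat was combined with standard-of-care or investigational agents. Top concentration at or near clinical Cmax, half-log dilutions; final DMSO ≤0.25%.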

Nc1ccn(C2OC(CO)C(O)C2(F)F)c(=O)n1 (stereo not given) + NC1CC1c1ccc(-c2cccc(O)c2)cc1
IC50 (second compound 0.1 µM): 9.42 nM | IC50 (second compound 0.316 µM): 8.17 nM | IC50 (second compound 1 µM): 7.91 nM | IC50 (second compound 3.16 µM): 6.77 nM | IC50 (second compound 10 µM): 5.86 nM | viability, T/C (second compound 0.1 µM, first compound 0.000949 µM): 105% | viability, T/C (second compound 0.1 µM, first compound 0.003 µM): 99.8% | viability, T/C (second compound 0.1 µM, first compound 0.00949 µM): 49.8% | viability, T/C (second compound 0.1 µM, first compound 0.03 µM): 12.8% | viability, T/C (second compound 0.1 µM, first compound 0.0949 µM): 10.7% | viability, T/C (second compound 0.1 µM, first compound 0.3 µM): 11.8% | viability, T/C (second compound 0.316 µM, first compound 0.000949 µM): 107% | viability, T/C (second compound 0.316 µM, first compound 0.003 µM): 102% | viability, T/C (second compound 0.316 µM, first compound 0.00949 µM): 42.1% | viability, T/C (second compound 0.316 µM, first compound 0.03 µM): 10.5% | viability, T/C (second compound 0.316 µM, first compound 0.0949 µM): 8.16% | viability, T/C (second compound 0.316 µM, first compound 0.3 µM): 8.05% | viability, T/C (second compound 1 µM, first compound 0.000949 µM): 106% | viability, T/C (second compound 1 µM, first compound 0.003 µM): 102% | viability, T/C (second compound 1 µM, first compound 0.00949 µM): 40.2% | viability, T/C (second compound 1 µM, first compound 0.03 µM): 7.41% | viability, T/C (second compound 1 µM, first compound 0.0949 µM): 7.12% | viability, T/C (second compound 1 µM, first compound 0.3 µM): 7.2% | viability, T/C (second compound 3.16 µM, first compound 0.000949 µM): 103% | viability, T/C (second compound 3.16 µM, first compound 0.003 µM): 101% | viability, T/C (second compound 3.16 µM, first compound 0.00949 µM): 29% | viability, T/C (second compound 3.16 µM, first compound 0.03 µM): 6.83% | viability, T/C (second compound 3.16 µM, first compound 0.0949 µM): 6.72% | viability, T/C (second compound 3.16 µM, first compound 0.3 µM): 7.82% | viability, T/C (second compound 10 µM, first compound 0.000949 µM): 100% | viability, T/C (second compound 10 µM, first compound 0.003 µM): 93.2% | viability, T/C (second compound 10 µM, first compound 0.00949 µM): 19% | viability, T/C (second compound 10 µM, first compound 0.03 µM): 5.75% | viability, T/C (second compound 10 µM, first compound 0.0949 µM): 6.04% | viability, T/C (second compound 10 µM, first compound 0.3 µM): 7.9%

O=C(c1cc(Cc2n[nH]c(=O)c3ccccc23)ccc1F)N1CCN(C(=O)C2CC2)CC1 + NC1CC1c1ccc(-c2cccc(O)c2)cc1
IC50 (second compound 0.1 µM): 9600 nM | IC50 (second compound 0.316 µM): 9550 nM | IC50 (second compound 1 µM): > 10000 nM | IC50 (second compound 3.16 µM): > 10000 nM | IC50 (second compound 10 µM): 8390 nM | viability, T/C (second compound 0.1 µM, first compound 0.0316 µM): 111% | viability, T/C (second compound 0.1 µM, first compound 0.1 µM): 108% | viability, T/C (second compound 0.1 µM, first compound 0.316 µM): 108% | viability, T/C (second compound 0.1 µM, first compound 1 µM): 106% | viability, T/C (second compound 0.1 µM, first compound 3.16 µM): 94.3% | viability, T/C (second compound 0.1 µM, first compound 10 µM): 48.4% | viability, T/C (second compound 0.316 µM, first compound 0.0316 µM): 107% | viability, T/C (second compound 0.316 µM, first compound 0.1 µM): 103% | viability, T/C (second compound 0.316 µM, first compound 0.316 µM): 102% | viability, T/C (second compound 0.316 µM, first compound 1 µM): 101% | viability, T/C (second compound 0.316 µM, first compound 3.16 µM): 90.2% | viability, T/C (second compound 0.316 µM, first compound 10 µM): 47.9% | viability, T/C (second compound 1 µM, first compound 0.0316 µM): 98% | viability, T/C (second compound 1 µM, first compound 0.1 µM): 100% | viability, T/C (second compound 1 µM, first compound 0.316 µM): 102% | viability, T/C (second compound 1 µM, first compound 1 µM): 98.8% | viability, T/C (second compound 1 µM, first compound 3.16 µM): 89.9% | viability, T/C (second compound 1 µM, first compound 10 µM): 50.1% | viability, T/C (second compound 3.16 µM, first compound 0.0316 µM): 104% | viability, T/C (second compound 3.16 µM, first compound 0.1 µM): 101% | viability, T/C (second compound 3.16 µM, first compound 0.316 µM): 100% | viability, T/C (second compound 3.16 µM, first compound 1 µM): 96.9% | viability, T/C (second compound 3.16 µM, first compound 3.16 µM): 87.8% | viability, T/C (second compound 3.16 µM, first compound 10 µM): 51.2% | viability, T/C (second compound 10 µM, first compound 0.0316 µM): 100% | viability, T/C (second compound 10 µM, first compound 0.1 µM): 99.8% | viability, T/C (second compound 10 µM, first compound 0.316 µM): 101% | viability, T/C (second compound 10 µM, first compound 1 µM): 96% | viability, T/C (second compound 10 µM, first compound 3.16 µM): 79.2% | viability, T/C (second compound 10 µM, first compound 10 µM): 44.7%
